Measured values: paper PMC5459853, “Cathepsin S inhibition combines control of systemic and peripheral pathomechanisms of autoimmune tissue injury” (Scientific Reports, 2017)

Columns and labels:
[1] = Plasma exposure on food admix (HPLC-MS/MS) and spleen p10; format: in vivo, MRL-(Fas)lpr mice
Method: Four-week-old female MRL-(Fas)lpr mice were purchased from Harlan Winkelmann (Borchen, Germany) and kept under pathogen-free conditions in a 12 hour light and dark cycle with free access to food and water. All animal experiments were performed in accordance with the European protection laws of animal welfare, and with approval by the local government authorities Regierung von Oberbayern (reference number: 55.2.1-54-2532.2-11-12). At 11 or 15 weeks of age only mice with proteinuria (Albustix, Bayer AG, Leverkusen, Germany) were randomized into five different groups (n = 10) receiving different medicated diets: Three groups were fed with chow mixed with either 3, 10 or 30 mg/kg/day RO5459072, another group’s chow was mixed with 100 mg/kg/day mycophenolate mofetil (MMF), and one group received a standard diet (vehicle). The dose of MMF was chosen according to several studies reporting strong efficacy on SLE and lupus nephritis in MRL-(Fas)lpr mice[24]–[26]. […] At the age of 19 weeks all mice were sacrificed by cervical dislocation. Blood and urine samples were collected at different time points as indicated. In other experiments 7 week old female MRL-(Fas)lpr mice were randomized into three groups (n = 3) to receive a single intravenous injection of 10 µg sterile recombinant Cat-S and one group receiving vehicle (100 µl sterile PBS). One of the Cat-S groups was pretreated with 30 mg/kg/day RO5459072 starting one week prior to Cat-S injection; another group was pretreated with a total of four daily intra-peritoneal injections of the PAR-2 inhibitor GB83 (10 mg/kg).
Plasma samples were collected from mice during the feeding cycle on weeks 2, 4, 6 and 8 on a variable schedule of individuals after initiation of feeding with the drug-food admix on week 1. The levels in food were calculated to achieve doses of 3, 10 and 30 mg/kg/day. EDTA-treated plasma samples (29 per dose level) were frozen and subsequently analysed for the parent drug by HPLC-MS/MS. A column-trapping method (Phenonenex Luna C18 and Thermo Hypersil Gold C8 HPLC columns eluted with formic acid/water/acetonitrile mixtures on a Waters Acquity HPLC system) was used to separate the drug which was quantified using a Sciex API4000 MS/MS. The analytical range was 10–10,000 ng/ml and a stable label internal standard was used. […] All experiments were performed according to German animal protection laws and had been approved by the local government authorities.

Human Cat-V = Human Cat-V (Homo sapiens, UniProt O60911); assay: Enzymatic isoform-selectivity assay, Cat-V; format: biochemical; details: read-out: apparent IC50, Cat V
Sequence of Human Cat-V (O60911 114-334): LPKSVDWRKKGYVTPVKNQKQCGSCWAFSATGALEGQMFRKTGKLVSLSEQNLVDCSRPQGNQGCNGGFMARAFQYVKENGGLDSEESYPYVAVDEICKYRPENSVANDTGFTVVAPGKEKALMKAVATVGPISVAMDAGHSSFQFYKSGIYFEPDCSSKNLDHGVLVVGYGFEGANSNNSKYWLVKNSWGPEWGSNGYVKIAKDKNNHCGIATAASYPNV
Method: (§1) RO5459072 was provided by F. Hoffmann-La Roche, Ltd., Basel, Switzerland. It is a competitive inhibitor of the active site of Cat-S and its nitrile function allows covalent reversible inhibition of Cat-S. The synthesis of RO5459072 has been described in WO 2010121918 and WO 2013068434. Recombinant cathepsins were produced in-house or were purchased from commercial vendors. Initial enzymatic assays to determine isoform-selectivity in vitro were performed as previously described, [23]. […] For this the Cat-S-dependent hydrolysis of the fluorogenic substrate Z-Phe-Arg-AMC (Sigma Aldrich) was followed at various inhibitor concentrations. The active fraction of Cat-S was detemined as 70% with a HPLC assay measuring modification of Cat-S with the covalent inhibitor LHVS. The buffer (100 mM potassium phosphate, 50 mM NaCl, 5 mM EDTA, 5 mM TCEP, pH 6) was thoroughly degassed prior to perfoming measurements to prevent oxidation of the catalytic cystein residue by dissolved oxygen. For the Ki-determination the substrate was employed at 10 µM = KM. All kinetic measurements were performad on a SFM-3000 stopped-flow instrument (Bio-Logic Science Instruments) and data were analyzed with GraphPad Prism v5.

Human Cat-L = Human Cat-L (Homo sapiens, UniProt P07711); assay: Enzymatic isoform-selectivity assay, Cat-L; format: biochemical
Sequence of Human Cat-L (P07711 114-333): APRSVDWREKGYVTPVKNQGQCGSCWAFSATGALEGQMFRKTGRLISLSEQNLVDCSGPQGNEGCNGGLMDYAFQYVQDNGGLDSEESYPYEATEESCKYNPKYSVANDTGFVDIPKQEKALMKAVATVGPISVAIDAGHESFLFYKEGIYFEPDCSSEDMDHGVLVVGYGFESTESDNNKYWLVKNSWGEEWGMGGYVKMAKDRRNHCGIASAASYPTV
Method: as §1

Human Cat-F = biological target: T1, Human Cat-F (Homo sapiens, UniProt Q9UBX1); assay: Enzymatic isoform-selectivity assay, Cat-F; format: biochemical
T1 sequence (Q9UBX1 271-484): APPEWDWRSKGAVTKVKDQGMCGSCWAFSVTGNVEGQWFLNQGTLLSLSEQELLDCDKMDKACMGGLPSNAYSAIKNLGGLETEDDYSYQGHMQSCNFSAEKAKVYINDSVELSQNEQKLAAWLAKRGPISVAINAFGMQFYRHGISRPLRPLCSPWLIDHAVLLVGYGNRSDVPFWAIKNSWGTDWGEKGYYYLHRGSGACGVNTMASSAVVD
Method: as §1

Human Cat-B = Human Cat-B (Homo sapiens, UniProt P07858); assay: Enzymatic isoform-selectivity assay, Cat-B; format: biochemical
Method: as §1

Human Cat-S = Human Cat-S (Homo sapiens, UniProt P25774); assay: Tight-binding kinetic analysis, Z-Phe-Arg-AMC hydrolysis, Morrison equation; format: biochemical; details: 10 µM Z-Phe-Arg-AMC (= KM), 10 nM Cat-S, pH 6
Sequence of Human Cat-S (P25774 115-331): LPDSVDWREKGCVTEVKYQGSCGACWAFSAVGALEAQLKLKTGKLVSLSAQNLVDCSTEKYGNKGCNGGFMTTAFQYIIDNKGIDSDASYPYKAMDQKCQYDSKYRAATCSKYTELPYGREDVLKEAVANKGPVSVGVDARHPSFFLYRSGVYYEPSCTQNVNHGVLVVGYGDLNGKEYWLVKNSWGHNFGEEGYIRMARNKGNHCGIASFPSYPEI
Method: as §1, with “The buffer (100 mM potassium phosphate, 50 mM NaCl, 5 mM EDTA, 5 mM TCEP, pH 6) was thoroughly degassed prior to perfoming measurements to prevent oxidation of the catalytic cystein residue by dissolved oxygen. For the Ki-determination the substrate was employed at 10 µM = KM.” left out, “v5. […]” for “v5.”
active Cat-S converged to [E]0 = 6.9 nM). […] (E) Pharmacodynamics of R05459072 was determined in C57Bl6 mice with increasing amounts of compound as single dose. […]
Supplementary figure 3. […] Plasma levels of IgG1 (A), IgG2a (B), and IgG2b (C) were determined by ELISA at different time points from the initiation (week 11) to the end of treatment (week 19). Data are expressed as means ± SEM (n=8 to 10 in […]

Mouse Cat-S = Mouse Cat-S (Mus musculus, UniProt O70370); assay: Enzymatic isoform-selectivity assay, mouse Cat-S; format: biochemical; details: read-out: apparent IC50, murine Cat-S
Method: as §1

mean plasma concentration (SD) ([1]; 3 mg/kg/day food admix): 172 ± 58.4 ng/mL
mean plasma concentration (SD) ([1]; 10 mg/kg/day food admix): 648 ± 142 ng/mL
mean plasma concentration (SD) ([1]; 30 mg/kg/day food admix): 2660 ± 575 ng/mL
concentration at 8 weeks ([1]; mouse, plasma, oral, food admix 262 mg/kg of food, exposure dose 30 mg/kg, over 8 weeks, female MRL-(Fas)lpr mice, read-out: stable plasma levels): 400 to 600 ng/mL
IC50 (Human Cat-V): 700 nM
IC50 (Human Cat-L): > 1000 nM
IC50, Human Cat-L (Human Cat-L): No sub-micro molar inhibition
IC50 (Human Cat-F): > 1000 nM
IC50, Human Cat-F (Human Cat-F): No sub-micro molar inhibition
IC50 (Human Cat-B): > 1000 nM
IC50, Human Cat-B (Human Cat-B): No sub-micro molar inhibition
Ki (Human Cat-S): 0.066 ± 0.025 nM
IC50 (Mouse Cat-S): 0.3 nM
SMILES: Cn1cc(-c2ccc(S(=O)(=O)[C@@H]3C[C@@H](C(=O)NC4(C#N)CC4)N(C(=O)C4(C(F)(F)F)CC4)C3)c(C(F)(F)F)c2)cn1 [RO5459072]
p10 fragment accumulation in the spleen ([1]; food admix, MRL-(Fas)lpr mice): robust p10 fragment accumulation
